Experimental data reported in patent US20210068388A1, “A MULTIPURPOSE POTENTIATOR COMPOSITION AND THE METHODS THEREOF” (priority 2017, published 2021).
Where two headings read alike, the source gives them in different places.

Columns and labels:
[1] = test system: African green monkey kidney cells (Vero cells); experiment: In-vitro cytotoxicity on Vero cells
Description: (§1) In-vitro cytotoxicity of the composition of was carried out on African green monkey kidney cells (Vero cells).

[2] = test system: African green monkey kidney cells (Vero cells)
Description: as §1

| SMILES | toxic level [1] | Non-toxic level (%) ([1]; up to total amount of the composition) | Non-toxic level (%) [2] | toxic level [2] |
| --- | --- | --- | --- | --- |
| [Cl-].[Na+] [Control-I, Sodium chloride] | 0.50% | 0.50% | – | – |
| [Na+].[OH-] [Control-II, Sodium hydroxide] | – | – | 0.06% | 0.06% |
